This is an account of results in PubChem BioAssay (NCI).

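Tested at 5 concentrations; 48 h exposure; 96-well plates; endpoints linearly interpolated, else capped at highest concentration. GI50 = concentration required for 50% inhibition of growth. At the TGI there is no net growth.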

Assay in all cases: NCI tumour cell line growth inhibition, 48 h
Test [1] deals with A498 renal.
Test [2] deals with HCT-116 colon.
Test [3] concerns IGROV1 ovarian.
The subject of test [4] is LOX IMVI melanoma.
For test [5], the system named is MDA-MB-231 breast.
For test [6], the system named is SK-MEL-2 melanoma.
The test system of test [7] is SNB-19 CNS.
The test system of test [8] is SW-620 colon.

Take `Cn1c(/C=C(\C#N)c2cccc(C(F)(F)F)c2)nc2c(N3CCOCC3)nc(Cl)nc21`: the GI50 was 1.38 µM in test [1]; 0.178 µM in test [2]; 0.556 µM in test [3]; 0.321 µM in test [4]; 1.05 µM in test [5]; 1.47 µM in test [6]. The GI50 in test [7] is 1.44 µM; in test [8] it was 0.377 µM. Besides, the TGI in test [1] turned out to be 2.72 µM; in test [2], 0.398 µM; in test [3], 1.89 µM; in test [4], 1.36 µM; in test [5], 2.3 µM; in test [6] it was 2.96 µM. In addition, the figures for the TGI in test [7] and in test [8] were 2.8 µM and 1.4 µM, respectively.

Take `O=C1NC(=O)C(c2ccc(Cl)cc2)=C1Nc1ccc(Cl)c(C(=O)O)c1`: the GI50 in test [1], in test [2], in test [3], in test [4], in test [5] and in test [6] was more than 25 µM in each case. Moreover, the GI50 in test [7] and in test [8] was more than 25 µM each time. The TGI in test [1], in test [2], in test [3], in test [4], in test [5] and in test [6] was more than 25 µM each time. Further, the TGI in test [7] and in test [8] was more than 25 µM in each case.

With `C[n+]1c2ccccc2c(Nc2ccc(NS(=O)(=O)CCCCN=C(N)N)cc2)c2ccc(N)cc21`, the GI50 is 0.32 µM in test [1]; 1.49 µM in test [2]; 2.92 µM in test [3]; 1.82 µM in test [4]; 43.6 µM in test [5]; 18.5 µM in test [6]. Further, the GI50 in test [7] was 0.444 µM; in test [8], 4.88 µM. Besides, the TGI was 31.4 µM in test [1]; more than 100 µM in test [2]; more than 100 µM in test [3]; more than 100 µM in test [4]; more than 100 µM in test [5]; 50.6 µM in test [6]. For the same molecule, the TGI in test [7] and in test [8] was more than 100 µM throughout.

For `O=CC(Br)C(Br)c1ccccc1` (centres undefined), the GI50 is 13.9 µM in test [1]; 0.225 µM in test [2]; 11 µM in test [3]; 0.665 µM in test [4]; 2.01 µM in test [5]; 2.85 µM in test [6]. In addition, the GI50 in test [7] is 12.8 µM; in test [8] it was 0.776 µM. Besides, the TGI in test [1] was determined as 29.5 µM; in test [2], 0.523 µM; in test [3], 26 µM; in test [4] it was 1.83 µM; in test [5], 4.22 µM; in test [6], 9.11 µM. Besides, the results for the TGI in test [7] and in test [8] were 26.2 µM and 2.33 µM, respectively.

Regarding `O=C(Nc1ccc2[nH]c(C(=O)N3CC(CCl)c4c3cc([N+](=O)[O-])c3ccccc43)cc2c1)c1cc2ccccc2o1` (centres undefined), the GI50 in test [1], in test [2], in test [3], in test [4], in test [5] and in test [6] was more than 1100 µM each time. Further, the GI50 in test [7] and in test [8] was more than 1100 µM throughout. Moreover, the TGI in test [1], in test [2], in test [3], in test [4], in test [5] and in test [6] was more than 1100 µM each time. Also, the TGI in test [7] and in test [8] was more than 1100 µM throughout.

Consider `c1cncc(-c2nc3ccccc3s2)c1`, for which the GI50 in test [1] was 50.7 µM; in test [2], more than 100 µM; in test [3], 42.6 µM; in test [4], more than 100 µM; in test [5] it was more than 100 µM; in test [6] it was more than 100 µM. Also, the GI50 in test [7] and in test [8] was more than 100 µM throughout. Moreover, the TGI in test [1], in test [2], in test [3], in test [4], in test [5] and in test [6] was more than 100 µM throughout. The TGI in test [7] and in test [8] was more than 100 µM throughout.

Regarding `CSc1n(Cc2ccc3ccccc3c2)c(C)c[n+]1Cc1ccc2ccccc2c1`, the GI50 was 1.13 µM in test [1]; 0.615 µM in test [2]; 0.49 µM in test [3]; 0.591 µM in test [4]; 0.484 µM in test [5]; 0.486 µM in test [6]. Moreover, the GI50 was 0.51 µM in test [7] and 0.852 µM in test [8]. For the same molecule, the TGI in test [1] came out at 2.93 µM; in test [2] it was 1.86 µM; in test [3] it was 1.8 µM; in test [4], 1.9 µM; in test [5], 1.74 µM; in test [6], 1.73 µM. The figures for the TGI in test [7] and in test [8] were 1.72 µM and 2.26 µM, respectively.

In the case of `CCCCOC(=O)c1ccc(NC(=O)CCl)cc1`, the GI50 in test [1] is 14.1 µM; in test [2] it was 1.29 µM; in test [3], 1.6 µM; in test [4], 1.03 µM; in test [5], 1.63 µM; in test [6], 4.89 µM. Besides, the GI50 in test [7] was 1.62 µM; in test [8], 1.59 µM. Further, the TGI in test [1] amounted to 28.6 µM; in test [2], 2.86 µM; in test [3], 4.34 µM; in test [4], 2.35 µM; in test [5], 3.26 µM; in test [6] it was 15.9 µM. The TGI in test [7] was found to be 3.22 µM; in test [8], 3.38 µM.

On to `COc1cc2c(cc1OC)-c1ccc3cc4c(cc3c1N(CCN(C)C)C2)OCO4`, for which the GI50 in test [1] is 0.723 µM; in test [2] it was 0.411 µM; in test [3], 0.943 µM; in test [4] it was 0.271 µM; in test [5] it was 1.63 µM; in test [6], 3.36 µM. Besides, the values for the GI50 in test [7] and in test [8] were 0.4 µM and 0.522 µM, respectively. For the same molecule, the TGI worked out at 2.53 µM in test [1]; 1.83 µM in test [2]; 3.25 µM in test [3]; 1.32 µM in test [4]; 5.31 µM in test [5]; 16.7 µM in test [6]. For the same molecule, the figures for the TGI in test [7] and in test [8] were 11.9 µM and 2.58 µM, respectively.
